Measurements reported in US11077115B2, “Rorgamma modulators and uses thereof” (Genfit, priority 2017, dated 2021).

Assays:
psoriasis model = details: administered by injection; cited from earlier work
multiple sclerosis model = details: administered by injection; cited from earlier work
[1] = system: patients with moderate to severe psoriasis; details: cited from earlier work
[2] = target: T1, RORγt ligand-binding domain (RORγt-LBD) (Homo sapiens, UniProt P51449); test: Time-resolved FRET (TR-FRET) RORγt coactivator assay (RIP140 peptide displacement); type: biochemical; details: ligand-dependent coactivator-RORγt binding
T1 construct: 20 nM recombinantly expressed RORγ-LBD fused to GST
T1 sequence (P51449 269-508 limits assumed): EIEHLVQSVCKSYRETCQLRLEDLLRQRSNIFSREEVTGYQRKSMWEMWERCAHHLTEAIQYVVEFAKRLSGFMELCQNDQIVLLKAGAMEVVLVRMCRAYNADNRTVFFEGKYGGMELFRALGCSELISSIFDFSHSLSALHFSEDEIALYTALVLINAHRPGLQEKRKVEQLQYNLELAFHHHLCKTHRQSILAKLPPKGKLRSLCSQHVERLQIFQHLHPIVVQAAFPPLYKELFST
Procedure, shortened: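 GST-tagged RORγt-LBD (20 nM) with 30 nM biotinylated RIP140 peptide, 1 nM streptavidin-terbium and 20 nM d2-anti-GST in CHAPS buffer with DTT, EDTA, BSA; 1% DMSO. Compounds 0.3 nM–30 μM, 2 h dark, room temperature. Coactivator displacement lowers TR-FRET signal; IC50 (μM) and Emax (%) derived.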

human RORγt [3] = target: T2, human RORγt (Homo sapiens, UniProt P51449); test: IL-17 secretion from EL4 murine lymphoma overexpressing human RORγt; type: cell-based; parameters: V5-His (named only through the vector pcDNA3.1D/V5-His-TOPO); expressed in transfected cells; details: IL-17 secretion inhibition in human RORγt-transfected EL4 Tcells, PMA/ionomycin stimulation
T2 sequence (P51449 1-497 isoform P51449-2): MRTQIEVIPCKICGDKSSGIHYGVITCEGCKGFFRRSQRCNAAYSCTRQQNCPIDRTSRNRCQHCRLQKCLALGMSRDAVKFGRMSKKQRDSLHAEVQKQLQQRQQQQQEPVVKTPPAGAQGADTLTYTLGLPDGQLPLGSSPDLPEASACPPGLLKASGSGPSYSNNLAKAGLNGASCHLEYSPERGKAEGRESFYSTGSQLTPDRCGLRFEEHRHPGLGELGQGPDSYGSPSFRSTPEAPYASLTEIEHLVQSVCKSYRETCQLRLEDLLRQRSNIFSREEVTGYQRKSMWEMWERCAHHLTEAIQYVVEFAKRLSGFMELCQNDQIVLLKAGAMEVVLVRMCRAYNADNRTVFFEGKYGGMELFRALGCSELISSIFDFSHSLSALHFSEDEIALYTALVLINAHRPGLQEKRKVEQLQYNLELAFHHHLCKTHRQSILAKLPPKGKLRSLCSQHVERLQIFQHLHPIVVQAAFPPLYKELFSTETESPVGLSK
Experimental: Murine EL-4 lymphoma cell line overexpressing human RORγt was used in this functional assay to assess compound ability to inhibit IL-17 cytokine secretion.
EL-4 cells are maintained in a standard culture medium RPMI supplemented with 10% fetal calf serum, 1% sodium pyruvate, 1% essential amino acids and 1% antibiotics at 37° C. in a humidified atmosphere of 5% CO2 and 95% air. Culture medium was changed every 2 days. EL4 cells were transfected with a plasmid encoding hRORγt (sequence identical to published sequence NM 001001523). […] Briefly, 1 μg of DNA/1 million cells was served to transfect EL-4 cells. Cell/DNA suspension was transferred into certified cuvette and the electroporation of RORγt plasmid was carried out using appropriate Nucleofector® program.
Cells were seeded in 96 well plates at a density of 150000 cells/well then treated with compounds of this invention at indicated concentrations and incubated for 24 hours at 37° C. in a humidified atmosphere of 5% CO2 and 95% air. EL-4 cells were pretreated with test compounds (RORγ modulators) and stimulated with PMA (10 ng/mL) and ionomycin (1 μM final concentration) in the presence of test compound concentrations for additional 24 h at 37° C. in a humidified atmosphere of 5% CO2 and 95% air. Subsequently, supernatants were collected (after centrifugation at 300 g for 10 minutes) to determine the concentrations of IL-17 by HTRF (CisBio, France) or ELISA (R&D Systems Europe) according to the manufacturer's protocols.

human RORγt [4] = target: T2, human RORγt; test: RORE Luciferase/RORγt transactivation assay (IL-17 promoter luciferase reporter in COS-7 cells); type: cell-based; parameters: V5-His (named only through the vector pcDNA3.1D/V5-His-TOPO); expressed in transfected cells; host or cells: COS-7 (monkey kidney); details: RORγt activity inhibition, luciferase activity in transfected COS-7 cells, 20 h
Procedure, shortened: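 COS-7 cells co-transfected with human RORγt and luciferase reporter driven by 4.3 kb IL-17 promoter with CNS enhancer, seeded in serum-free, phenol red-free DMEM. Compounds added at 0.3% DMSO final; luciferase read by Steady-Glo luminescence. IC50 (μM) and Emax (%) reported.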

[5] = relative to placebo, patients with moderate to severe psoriasis

SMILES: Cc1ccc([C@@H](NC(=O)Cc2ccc3oc([C@@H](O)c4c(C)noc4C)cc3c2)c2ccccc2)c(C)c1 [TMP778]
- efficacy in psoriasis model (psoriasis model): efficacious

SMILES: CC(=O)Nc1nc(C)c(S(=O)(=O)Nc2ccc(C(O)(C(F)(F)F)C(F)(F)F)cc2)s1 [SR1001]
- efficacy in multiple sclerosis model (multiple sclerosis model): efficacious

SMILES: CCS(=O)(=O)c1ccc(CNC(=O)c2cnc3c(c2)CN(C[C@H]2CC[C@H](C(F)(F)F)CC2)[C@H]3C(C)C)nc1 [VTP-43742]
- reduction in the Psoriasis Area Severity Index (PASI) score relative to placebo ([1]; 350 mg dose group): 24%
- placebo-adjusted PASI score reduction ([1]; 700 mg dose group): 30%
- Psoriasis Area Severity Index (PASI) score [1, 5]: reduced
- plasma IL-17 levels [1, 5]: reduced

SMILES: Cc1ccc(C(NC(=O)C2(c3ccc(N4CCS(=O)(=O)CC4)cc3)CC2)c2ccc(C)o2)c(N2CCCCC2)c1 (stereo not drawn) [Cpd. 32, 1-[4-(1,1-dioxo-1-thiomorpholin-4-yl)phenyl]-N-{[4-methyl-2-(piperidin-1-yl)phenyl](5-methylfuran-2-yl)methyl}cyclopropane-1-carboxamide]
- IC50 [2]: 0.1 to 1 µM
- IC50 (human RORγt [3]): < 1 µM
- IC50 (human RORγt [4]): < 0.1 µM
